# Laboratory results taken from PubChem BioAssay (NCI).
#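 Tested at 5 concentrations; 48 h exposure; 96-well plates; endpoints linearly interpolated, else capped at highest concentration. Definition used: TGI = concentration required for complete inhibition of growth.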
# Legend:
# Assay in all cases: growth of human tumour cells (NCI), 48 h
# T-47D breast = test system: T-47D breast
# UO-31 renal = test system: UO-31 renal
# OVCAR-8 ovarian = test system: OVCAR-8 ovarian
# CCRF-CEM leukemia = test system: CCRF-CEM leukemia
# DU-145 prostate = test system: DU-145 prostate
# K-562 leukemia = test system: K-562 leukemia
# UACC-62 melanoma = test system: UACC-62 melanoma
# ACHN renal = test system: ACHN renal
# SF-268 CNS = test system: SF-268 CNS
# SF-539 CNS = test system: SF-539 CNS
# PC-3 prostate = test system: PC-3 prostate
# SF-295 CNS = test system: SF-295 CNS
# NCI-H23 lung = test system: NCI-H23 lung
# 786-0 renal = test system: 786-0 renal
# HOP-62 NSCLC = test system: HOP-62 NSCLC
# HCT-116 colon = test system: HCT-116 colon
# TK-10 renal = test system: TK-10 renal
# SK-MEL-28 melanoma = test system: SK-MEL-28 melanoma
# IGROV1 ovarian = test system: IGROV1 ovarian
# COLO 205 colon = test system: COLO 205 colon
# MDA-N = test system: MDA-N
# U251 CNS = test system: U251 CNS
# UACC-257 melanoma = test system: UACC-257 melanoma
# SK-OV-3 ovarian = test system: SK-OV-3 ovarian
# BT-549 breast = test system: BT-549 breast
# HS 578T breast = test system: HS 578T breast
# SR leukemia = test system: SR leukemia
# SN12C renal = test system: SN12C renal
# HT29 colon = test system: HT29 colon
# CAKI-1 renal = test system: CAKI-1 renal
# M14 melanoma = test system: M14 melanoma
# HOP-92 NSCLC = test system: HOP-92 NSCLC
# RPMI-8226 leukemia = test system: RPMI-8226 leukemia
# EKVX NSCLC = test system: EKVX NSCLC
# A498 renal = test system: A498 renal
# OVCAR-3 ovarian = test system: OVCAR-3 ovarian
# NCI-H226 lung = test system: NCI-H226 lung
# LOX IMVI melanoma = test system: LOX IMVI melanoma
# A549 NSCLC = test system: A549 NSCLC
# MDA-MB-435 = test system: MDA-MB-435
# NCI-H522 lung = test system: NCI-H522 lung
# SNB-19 CNS = test system: SNB-19 CNS
# SK-MEL-5 melanoma = test system: SK-MEL-5 melanoma
# MOLT-4 leukemia = test system: MOLT-4 leukemia
# MALME-3M melanoma = test system: MALME-3M melanoma
# KM12 colon = test system: KM12 colon
# OVCAR-4 ovarian = test system: OVCAR-4 ovarian
# OVCAR-5 ovarian = test system: OVCAR-5 ovarian
# MDA-MB-231 breast = test system: MDA-MB-231 breast
# HCC-2998 colon = test system: HCC-2998 colon
# HCT-15 colon = test system: HCT-15 colon
# SW-620 colon = test system: SW-620 colon
# NCI/ADR-RES ovarian = test system: NCI/ADR-RES ovarian
# NCI-H460 lung = test system: NCI-H460 lung
# MCF7 breast = test system: MCF7 breast
# SK-MEL-2 melanoma = test system: SK-MEL-2 melanoma
# HL-60(TB) leukemia = test system: HL-60(TB) leukemia
compound,measurement,setting,value
N#CCN1c2ccccc2CCC1Cl (configuration not stated),TGI,T-47D breast,> 10 µM
same,TGI,UO-31 renal,> 10 µM
same,TGI,OVCAR-8 ovarian,> 10 µM
same,TGI,CCRF-CEM leukemia,> 10 µM
same,TGI,DU-145 prostate,> 10 µM
same,TGI,K-562 leukemia,> 10 µM
same,TGI,UACC-62 melanoma,> 10 µM
same,TGI,ACHN renal,> 10 µM
same,TGI,SF-268 CNS,> 10 µM
same,TGI,SF-539 CNS,> 10 µM
same,TGI,PC-3 prostate,> 10 µM
same,TGI,SF-295 CNS,> 10 µM
same,TGI,NCI-H23 lung,> 10 µM
same,TGI,786-0 renal,> 10 µM
same,TGI,HOP-62 NSCLC,> 10 µM
same,TGI,HCT-116 colon,> 10 µM
same,TGI,TK-10 renal,> 10 µM
same,TGI,SK-MEL-28 melanoma,> 10 µM
same,TGI,IGROV1 ovarian,> 10 µM
same,TGI,COLO 205 colon,> 10 µM
same,TGI,MDA-N,> 10 µM
same,TGI,U251 CNS,> 10 µM
same,TGI,UACC-257 melanoma,> 10 µM
same,TGI,SK-OV-3 ovarian,> 10 µM
same,TGI,BT-549 breast,> 10 µM
same,TGI,HS 578T breast,> 10 µM
same,TGI,SR leukemia,> 10 µM
same,TGI,SN12C renal,> 10 µM
same,TGI,HT29 colon,> 10 µM
same,TGI,CAKI-1 renal,> 10 µM
same,TGI,M14 melanoma,> 10 µM
same,TGI,HOP-92 NSCLC,> 10 µM
same,TGI,RPMI-8226 leukemia,> 10 µM
same,TGI,EKVX NSCLC,> 10 µM
same,TGI,A498 renal,> 10 µM
same,TGI,OVCAR-3 ovarian,> 10 µM
same,TGI,NCI-H226 lung,> 10 µM
same,TGI,LOX IMVI melanoma,> 10 µM
same,TGI,A549 NSCLC,> 10 µM
same,TGI,MDA-MB-435,> 10 µM
same,TGI,NCI-H522 lung,> 10 µM
same,TGI,SNB-19 CNS,> 10 µM
same,TGI,SK-MEL-5 melanoma,> 10 µM
same,TGI,MOLT-4 leukemia,> 10 µM
same,TGI,MALME-3M melanoma,> 10 µM
same,TGI,KM12 colon,> 10 µM
same,TGI,OVCAR-4 ovarian,> 10 µM
same,TGI,OVCAR-5 ovarian,> 10 µM
same,TGI,MDA-MB-231 breast,> 10 µM
same,TGI,HCC-2998 colon,> 10 µM
same,TGI,HCT-15 colon,> 10 µM
same,TGI,SW-620 colon,> 10 µM
same,TGI,NCI/ADR-RES ovarian,> 10 µM
same,TGI,NCI-H460 lung,> 10 µM
same,TGI,MCF7 breast,> 10 µM
C=C1CC(Cn2ccc(=O)[nH]c2=O)(c2ccc(OC)cc2)OC1=O (configuration not stated),TGI,T-47D breast,39.8 µM
same,TGI,SK-MEL-2 melanoma,27.1 µM
same,TGI,UO-31 renal,31.7 µM
same,TGI,OVCAR-8 ovarian,46.8 µM
same,TGI,CCRF-CEM leukemia,10.4 µM
same,TGI,DU-145 prostate,31.3 µM
same,TGI,K-562 leukemia,16 µM
same,TGI,UACC-62 melanoma,27.9 µM
same,TGI,ACHN renal,33 µM
same,TGI,SF-268 CNS,51.1 µM
same,TGI,SF-539 CNS,41.2 µM
same,TGI,PC-3 prostate,30.6 µM
same,TGI,SF-295 CNS,> 100 µM
same,TGI,NCI-H23 lung,29.2 µM
same,TGI,786-0 renal,25.2 µM
same,TGI,HOP-62 NSCLC,> 100 µM
same,TGI,HCT-116 colon,20 µM
same,TGI,TK-10 renal,25.2 µM
same,TGI,SK-MEL-28 melanoma,33 µM
same,TGI,IGROV1 ovarian,31.6 µM
same,TGI,COLO 205 colon,14.5 µM
same,TGI,MDA-N,28 µM
same,TGI,U251 CNS,53.4 µM
same,TGI,UACC-257 melanoma,35.3 µM
same,TGI,SK-OV-3 ovarian,> 92.9 µM
same,TGI,HL-60(TB) leukemia,7.45 µM
same,TGI,BT-549 breast,24.6 µM
same,TGI,HS 578T breast,56.9 µM
same,TGI,SR leukemia,10.5 µM
same,TGI,SN12C renal,19 µM
same,TGI,HT29 colon,31.2 µM
same,TGI,CAKI-1 renal,19.6 µM
same,TGI,M14 melanoma,21.2 µM
same,TGI,HOP-92 NSCLC,4.58 µM
same,TGI,RPMI-8226 leukemia,12 µM
same,TGI,EKVX NSCLC,41.5 µM
same,TGI,A498 renal,31.6 µM
same,TGI,OVCAR-3 ovarian,36.1 µM
same,TGI,NCI-H226 lung,39.3 µM
same,TGI,LOX IMVI melanoma,27.8 µM
same,TGI,A549 NSCLC,59.2 µM
same,TGI,MDA-MB-435,30.8 µM
same,TGI,NCI-H522 lung,4.4 µM
same,TGI,SNB-19 CNS,> 100 µM
same,TGI,SK-MEL-5 melanoma,26.8 µM
same,TGI,MOLT-4 leukemia,8.25 µM
same,TGI,MALME-3M melanoma,27 µM
same,TGI,KM12 colon,35.5 µM
same,TGI,OVCAR-4 ovarian,35.1 µM
same,TGI,OVCAR-5 ovarian,32.2 µM
same,TGI,MDA-MB-231 breast,33.2 µM
same,TGI,HCC-2998 colon,17.5 µM
same,TGI,HCT-15 colon,31.5 µM
same,TGI,SW-620 colon,16.1 µM
same,TGI,NCI/ADR-RES ovarian,38.9 µM
same,TGI,NCI-H460 lung,> 67.6 µM
same,TGI,MCF7 breast,16 µM
